Results taken from publication PMC7311950, “Potent Tetrahydroquinolone Eliminates Apicomplexan Parasites” (Frontiers in Cellular and Infection Microbiology, 2020).
Converted amounts (≈) assume the structure as drawn.

What was measured:
[1] = test system: T. gondii EGS strain bradyzoites; assay: In vitro challenge assay for EGS strain bradyzoites; format: cell-based, Toxoplasma gondii; settings: Toxoplasma gondii; EGS strain in HFF; Figure 1A; read-out: Brady IC50
Procedure: HFF cells were grown in IMDM on removable, sterile glass cover slips in the bottom of a clear, flat-bottomed 24-well plate. Cultures were infected with 3 × 10^4 EGS strain parasites per well, in 0.5 mL media. The plate was returned to incubator at 37°C overnight. The following day, the media was removed. Colorless IMDM and compounds were added to make various concentrations of the drug. Total volume was 0.5 mL. Two wells had media only, as a control. Plates were returned to the 37°C incubator for 72 h, checked once each 24 h. If tachyzoites were visible in the control before 72 h, cells were fixed and stained. Cells were fixed using 4% paraformaldehyde and stained with Fluorescein-labeled Dolichos Biflorus Agglutinin, DAPI, and antibody to BAG1. Disks were removed, mounted on glass slides, and visualized using microscopy (Nikon Tl7). Slides were scanned using a CRi Panoramic Scan Whole Slide Scanner and viewed using Panoramic Viewer Software. Effects of compounds were quantitated by counting cysts in controls and treated cultures. Dolichos staining delimited structures and single organisms that remained were counted in a representative field of view. This was then multiplied by a factor determined by the total area of the cover slip in order to estimate the number of cysts and organisms in each condition. When the following forms were observed: “true cysts” with a dolichos-staining wall, “pseudocysts” or tight clusters of parasites, and small organisms, if there were fewer than four parasites visible in a cluster, organisms were counted individually (as “small organisms”). The entire scanned coverslip with all fields was also reviewed by 3 observers to confirm consistency.

[2] = Kinetic solubility in PBS pH 7.4 (Chem Partners); settings: PBS; for solubility kinetic: pH 7.4, aqueous buffer, kinetic from dmso stock
Procedure: (§1) The effects of changing R1 as 7-Et, 7-Me, 6-CF3, or 6-Me on activity against RH strain tachyzoites, kinetic solubility, and metabolic stability were compared. Kinetic solubility and metabolic stability in human or murine liver microsomes were measured. The hERG (human Ether-à-go-go-Related) liability was also determined. The hERG gene (KCNH2) encodes a protein Kv11.1, the alpha subunit of a potassium ion channel. This channel conducts the rapid component of the delayed rectifier potassium current, IKr, which is critical for repolarization of cardiac action potentials. A reduction in hERG currents from adverse drug effects can lead to long QT interval syndromes. These syndromes are characterized by action potential prolongation, lengthening of the QT interval on surface EKG, and an increased risk for “torsade de pointes” arrhythmias and sudden death. The MDCK-MDR1 Permeability Assay was also performed. MDCK-MDR1 refers to the ability of a compound to permeate across membranes of MDCK-MDR1 (Madin Darby canine kidney [MDCK] cells with the MDR1 gene [ABCB1], the gene encoding for the efflux protein, P-glycoprotein (P-gp)) in vitro. Assessing transport in both directions (apical to basolateral and basolateral to apical) across the cell monolayers enables an efflux ratio to be determined. […] This provides a prediction of blood brain barrier (BBB) penetration potential/permeability and efflux ratio. Effect in CACO-2 (Colon Adenocarcinoma cells) as a permeability assay and on cytochrome P450 (CYP 450) were also determined. CYP enzymes catalyze oxidative biotransformation (phase 1 metabolism) of most drugs. CYP enzymes, bind to membranes in a cell (cyto) and contain a heme pigment (chrome and P) that absorbs light at a wavelength of 450 nm when exposed to carbon monoxide. Metabolism of a drug by CYP enzymes is a major source of variability in drug effect. These were measured by Chem Partners. The relative effect on HFF and parasite enzymes also were compared.

[3] = test system: T. gondii RH-YFP tachyzoites; assay: In vitro challenge assay, RH strain YFP tachyzoites in HFF; format: cell-based; settings: Toxoplasma gondii; RH-YFP tachyzoites in HFF; Figure 1A; read-out: Tachy IC50
Procedure: RH strain YFP Tachyzoites. Protocol was adapted from Fomovska et al. ([2012a],[b]) for HFF. HFF were cultured on a flat, clear-bottomed, black 96-well plate to 90–100% confluence. IMDM (1x, [+] glutamine, [+] 25 mM HEPES, [+] Phenol red, 10% FBS [Gibco, Denmark]) was removed and replaced with IMDM-C(1x, [+] glutamine, [+] 25 mM HEPES, [–] Phenol red, 10% FBS)[Gibco, Denmark]). RH-YFP, lysed from host cells by passing twice through a 27-gauge needle, were counted, then diluted to 32,000/mL in IMDM-C. HFF were infected with 3200 RH-YFP, then returned to 37°C, CO2 (5%) incubator for 1–2 h for infection. Various concentrations of the compounds in 20 μL IMDM-C were added to each well. There were triplicates for each condition. Controls were pyrimethamine/sulfadiazine (standard treatment), 0.1% DMSO only, HFF only, and untreated cultures of HFF infected with 2-fold dilutions of YFP expressing parasites (called “YFP gradient” to establish amount of color from known numbers of YFP expressing parasites). Cells were incubated at 37°C for 72 h. Plates were read using a fluorimeter (Synergy H4 Hybrid Reader, BioTek) to ascertain amount of relative fluorescence units (RFU) YFP, to measure parasite burden after treatment. Data were collected using Gen5 software with IC50 calculated by graphical analysis in Excel.
An initial screening assay of 10 μM, 1 μM, 100 nM, and 10 nM of the compounds was performed. Compounds were not considered effective or pursued for further analysis if there was no inhibition of tachyzoites at 1 μM. If compounds were effective at 1 μM, another experiment was performed to assess effect at 1 μM, 500, 250, 125, 62.5, and 31.25 nM.

[4] = Metabolic stability in mouse liver microsomes; settings: mouse, liver microsomes, T1/2 (M), predicted half-life in mouse liver microsomes; Figure 1A; min in Figure 2E for the same values
Procedure: as §1
(§2) In vitro absorption, distribution, metabolism, excretion, and toxicity (ADMET) analyses of the THQ compounds were outsourced to ChemPartner Shanghai Ltd. ELQ-271 (synthesized in-house) was tested as a comparison.

[5] = Metabolic stability in human liver microsomes; settings: human, liver microsomes
Procedure: as §1, §2

| SMILES | IC50 [1] [nM] | solubility kinetic [2] [µM] | IC50 [3] [nM] | half-life [4] [h] | half-life [5] [h] | solubility ([2]; pH 7.4, aqueous solubility (PBS, pH 7.4), amorphous compounds) [µM] |
| --- | --- | --- | --- | --- | --- | --- |
| Cc1[nH]c2c(c(=O)c1-c1ccc(Oc3cc(Cl)cc(Cl)c3)cc1)CCCC2 [AS022] | 1000 | 6.25 (≈ 2.5 µg/mL) | 30 | 0.477 |  |  |
| Cc1[nH]c2c(c(=O)c1-c1ccc(Oc3cccc(OC(F)(F)F)c3)cc1)CCCC2 [AS006] | 1000 | 0.55 (≈ 0.228 µg/mL) | 60 | 0.431 |  |  |
| Cc1[nH]c2c(c(=O)c1-c1ccc(Oc3ccc(OC(F)(F)F)cc3)cc1)CC(C)CC2 (centres unmarked) [JAG106] |  |  | 2500 |  |  |  |
| Cc1[nH]c2c(c(=O)c1-c1ccc(Oc3cccc(F)c3)cc1)CCCC2 [JAG069] | 1000 | 0.5 (≈ 0.175 µg/mL) | 30 | 0.29 | 3.37 |  |
| Cc1[nH]c2c(c(=O)c1-c1ccc(Oc3cc(Cl)nc(Cl)c3)cc1)CCCC2 [AS034] |  | 5.05 (≈ 2.03 µg/mL) | 280 | 0.415 |  |  |
| Cc1[nH]c2c(c(=O)c1-c1ccc(O)cc1)CCCC2 [JAG094] |  |  | 1000 |  |  |  |
| Cc1[nH]c2ccccc2c(=O)c1-c1ccc(Oc2ccccc2)cc1 [MJM129] | > 10000 |  | 50 |  |  |  |
| Cc1[nH]c2c(c(=O)c1-c1ccc(Oc3ccc(OC(F)(F)F)cc3)cc1)CCC(C)C2 (centres unmarked) [JAG107] |  | 0.03 (≈ 0.0129 µg/mL) | 50 | 1.87 |  |  |
| CCC1CCc2c([nH]c(CO)c(-c3ccc(Oc4ccc(OC(F)(F)F)cc4)cc3)c2=O)C1 (centres unmarked) [JAG174] |  |  | 380 |  |  |  |
| Cc1[nH]c2c(c(=O)c1-c1ccc(Oc3ccc(C(F)(F)F)cc3)cc1)CCCC2 [JAG063] |  | 0.45 (≈ 0.18 µg/mL) | 200 | 2.12 | 8.94 |  |
| Cc1[nH]c2c(c(=O)c1-c1ccc(Oc3cccc(C(F)(F)F)c3)cc1)CCCC2 [AS012] |  | 2.19 (≈ 0.875 µg/mL) | 260 | 0.501 |  |  |
| Cc1[nH]c2c(c(=O)c1-c1ccc(Oc3ccc4c(c3)OCO4)cc1)CCCC2 [AS032] |  |  | 200 |  |  |  |
| Cc1[nH]c2c(c(=O)c1-c1ccc(Oc3ccc(OC(F)(F)F)cc3)cc1)CC(C(F)(F)F)CC2 (centres unmarked) [JAG100] |  |  | > 10000 |  |  |  |
| O=c1c2c([nH]c(CO)c1-c1ccc(Oc3ccc(OC(F)(F)F)cc3)cc1)CC(C(F)(F)F)CC2 (centres unmarked) [JAG187] |  |  | 2000 |  |  |  |
| Cc1[nH]c2c(c(=O)c1-c1ccc(Oc3ccc(F)c(Cl)c3)cc1)CCCC2 [AS021] | 1000 | 2 (≈ 0.768 µg/mL) | 65 | 0.685 |  |  |
| Cc1[nH]c2ccnn2c(=O)c1-c1ccc(Oc2ccc(OC(F)(F)F)cc2)cc1 [MJM141] | 10000 | 0.94 (≈ 0.377 µg/mL) | 8200 |  | 4.64 |  |
| CCOC(=O)Oc1c2c(nc(C)c1-c1ccc(Oc3ccc(OC(F)(F)F)cc3)cc1)CCCC2 [JAG171] |  |  | 100 |  |  |  |
| Cc1[nH]c2c(c(=O)c1-c1ccc(Oc3cc(Cl)cc(Cl)c3)cc1)CCC(C)C2 (centres unmarked) [JAG208] | 1000 |  | 20 |  |  |  |
| Cc1[nH]c2cnccc2c(=O)c1-c1ccc(Oc2ccc(OC(F)(F)F)cc2)cc1 [JAG129] |  | 5.12 (≈ 2.11 µg/mL) | 85 |  |  |  |
| Cc1c(-c2ccc(Oc3ccc(OC(F)(F)F)cc3)cc2)c(=O)c2c(n1C)CCCC2 [JAG023] |  |  | 800 |  |  |  |
| CCC1CCc2c([nH]c(C)c(-c3ccc(Oc4ccc(OC(F)(F)F)cc4)cc3)c2=O)C1 (centres unmarked) [JAG121] |  | 0.16 (≈ 0.071 µg/mL) | 55 | 1.05 |  |  |
| Cc1[nH]c2c(c(=O)c1-c1ccc(Oc3ccc(F)cc3)cc1)CCCC2 [JAG058] | 1000 | 2.38 (≈ 0.832 µg/mL) | 40 | 0.653 | 4.39 |  |
| Cc1[nH]c2c(c(=O)c1-c1ccc(Oc3ccc(OC(F)(F)F)cc3)cc1)CCC(C(F)(F)F)C2 (centres unmarked) [JAG162] |  | 0.02 (≈ 0.00967 µg/mL) | 300 | 2.41 |  |  |
| Cc1[nH]c2ccccc2c(=O)c1-c1ccc(Oc2ccc(OC(F)(F)F)cc2)cc1 [ELQ271, reference compound] | 5000 |  | 30 | 7.47 |  | 0.2 (≈ 0.0823 µg/mL) |
| CC1CCc2c([nH]c(CO)c(-c3ccc(Oc4ccc(OC(F)(F)F)cc4)cc3)c2=O)C1 (centres unmarked) [JAG193] |  |  | 50 |  |  |  |
| O=C(O)c1[nH]c2c(c(=O)c1-c1ccc(Oc3ccc(OC(F)(F)F)cc3)cc1)CCCC2 [JAG091] |  |  | > 10000 |  |  |  |
| Cc1[nH]c2c(c(=O)c1-c1ccc(Oc3ccc(Cl)c(Cl)c3)cc1)CCCC2 [JAG084] | 1000 | 0.68 (≈ 0.272 µg/mL) | 55 | 1.05 |  |  |
| Cc1[nH]c2c(c(=O)c1-c1ccc(Oc3cccc(Cl)c3)cc1)CCCC2 [JAG062] | 1000 | 0.33 (≈ 0.121 µg/mL) | 16 | 0.207 | 2.26 |  |
